Test results from US20250115591A1, “NOVEL SULFONAMIDE CARBOXAMIDE COMPOUNDS” (INFLAZOME LIMITED, priority 2017, published 2025).
pIC50: −log10 of the molar value. Counter-ions that a name gives are not always drawn.

Key:
NLRP3 [1] = target: T1, NLRP3 (Homo sapiens (Human), UniProt Q96P20); assay: Human whole blood IL1β release assay (LPS + nigericin); assay type: cell-based
Method: For systemic delivery, the ability to inhibit NLRP3 when the compounds are present within the bloodstream is of great importance. For this reason, the NLRP3 inhibitory activity of a number of compounds in human whole blood was investigated in accordance with the following protocol.
Human whole blood in Li-heparin tubes was obtained from healthy donors from a volunteer donor panel. • 1. Plate out 80 μl of whole blood containing 1 μg/ml of LPS in 96-well, clear bottom cell culture plate (Corning #3585) • 2. Add 10 μl compound (8 points half-log dilution with 10 μM top dose) or vehicle (DMSO 0.1% FAC) to the appropriate wells • 3. Incubate for 3 hrs at 37° C., 5% CO2 • 4. Add 10 μl nigericin (Sigma #N7143) ([…]) to all wells • 5. Incubate for 1 hr at 37° C., 5% CO2 • 6. At the end of the incubation period, spin plates at 30×g for 5 mins to pellet cells and remove 20 μl of supernatant and add to 96-well v-bottom plates for IL-1β analysis (note: these plates containing the supernatants can be stored at −80° C. to be analysed at a later date) • 7. IL-1β was measured according to the manufacturer protocol (Perkin Elmer-AlphaLisa IL-Kit A[220F-5000) • 8. IC50 data is fitted to a non-linear regression equation (log inhibitor vs response-variable slope 4-parameters)

NLRP3 [2] = target: T1, NLRP3; assay: THP-1 cells pyroptosis assay (LPS + nigericin, resazurin read-out); assay type: cell-based; settings: 1 μg/ml LPS, 5 μM nigericin
How it was run: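 LPS-primed (1 μg/ml) human THP-1 cells in serum-free RPMI were exposed to compound (8-point half-log series, top dose as printed "10M") for 3 h at 37 °C, then to nigericin 5 μM for 1 h. Remaining viability was read by resazurin (100 μM, 1-2 h) fluorescence, and IC50 came from 4-parameter variable-slope regression.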

[3] = PK, intravenous administration; assay type: in vivo, male Sprague Dawley rats; settings: male, Sprague Dawley, plasma, rat, intravenous, dose 1 mg/kg; for AUC: read-out: AUC; for clearance: read-out: Cl; for half-life: read-out: T1/2 (converted); for Vd: read-out: Vdss
Method: Pharmacokinetic parameters were determined in male Sprague Dawley rats (Charles River, UK, 250-300 g; or Vital River Laboratory Animal Technology Co Ltd, Beijing, China, 7-9 weeks old). Animals were individually housed during the study and maintained under a 12 h light/dark cycle. Animals had free access to food and water except that orally dosed animals were food deprived overnight prior to the study. For intravenous administration, compounds were formulated as a solution in water or DMSO:PBS [10:90] in 2 mL/kg dosing volume and administered via tail vein. For oral administration, compounds were formulated as a solution in water or DMSO:water [10:90] in 5 mL/kg dosing volume and administered orally. Serial blood samples (about 120-300 μL) were taken from each animal at each of 8 time-points post dose (0.083, 0.25, 0.5, 1, 2, 4, 8 and 24 h). Samples were held on ice for no longer than 30 minutes before centrifugation (10,000 rpm (8,385 g) for 3 minutes; or 5,696 rpm (3,000 g) for 15 minutes) for plasma generation. Plasma was frozen on dry ice prior to bioanalysis. PK parameters were generated from LC-MS/MS data using Dotmatics or Phoenix WinNonlin 6.3 software.

[4] = human whole blood, 1 μg/ml LPS, nigericin, IL-1β release, read-out: HWB IC50

T1 sequence (Q96P20 whole entry): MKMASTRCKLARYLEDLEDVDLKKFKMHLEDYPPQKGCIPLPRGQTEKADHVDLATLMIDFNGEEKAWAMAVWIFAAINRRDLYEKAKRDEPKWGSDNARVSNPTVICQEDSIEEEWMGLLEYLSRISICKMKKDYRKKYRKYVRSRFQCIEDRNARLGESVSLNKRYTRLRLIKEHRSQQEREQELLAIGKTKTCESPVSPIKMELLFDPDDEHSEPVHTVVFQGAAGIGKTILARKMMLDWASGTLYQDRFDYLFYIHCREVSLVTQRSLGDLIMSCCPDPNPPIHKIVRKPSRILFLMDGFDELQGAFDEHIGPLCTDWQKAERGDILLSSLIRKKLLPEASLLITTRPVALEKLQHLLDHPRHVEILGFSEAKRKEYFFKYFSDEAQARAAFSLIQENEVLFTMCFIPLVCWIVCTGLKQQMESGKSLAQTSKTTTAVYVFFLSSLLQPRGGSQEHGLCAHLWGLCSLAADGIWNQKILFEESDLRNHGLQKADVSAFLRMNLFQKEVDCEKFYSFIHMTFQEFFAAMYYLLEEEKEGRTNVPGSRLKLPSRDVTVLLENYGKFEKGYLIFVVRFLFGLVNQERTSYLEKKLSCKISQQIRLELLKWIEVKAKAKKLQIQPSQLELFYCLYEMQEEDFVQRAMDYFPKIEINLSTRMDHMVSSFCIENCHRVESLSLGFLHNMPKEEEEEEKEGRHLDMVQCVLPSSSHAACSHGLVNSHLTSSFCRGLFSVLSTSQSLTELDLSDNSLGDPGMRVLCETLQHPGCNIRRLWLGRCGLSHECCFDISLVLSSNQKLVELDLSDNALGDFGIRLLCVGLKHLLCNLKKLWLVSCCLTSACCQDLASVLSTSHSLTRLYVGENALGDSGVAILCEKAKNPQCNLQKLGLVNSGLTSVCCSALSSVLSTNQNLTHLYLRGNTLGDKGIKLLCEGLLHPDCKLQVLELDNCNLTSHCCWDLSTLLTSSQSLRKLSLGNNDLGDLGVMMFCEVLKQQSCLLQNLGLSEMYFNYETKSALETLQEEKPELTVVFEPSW

O=C(Nc1c2c(cc3c1CCC3)CCC2)NS(=O)(=O)C1CN(CC2COC2)C1 [Example 101, N-((1,2,3,5,6,7-Hexahydro-s-indacen-4-yl)carbamoyl)-1-(oxetan-3-ylmethyl)azetidine-3-sulfonamide, potassium salt]
pIC50 (NLRP3 [1]; [4]): > 6.00 | pIC50 (NLRP3 [2]): > 6.00

COc1cc(-c2ccc3c(c2NC(=O)NS(=O)(=O)C2CN(C(C)C)C2)CCC3)ccn1 [Example 159, 1-Isopropyl-N-((5-(2-methoxypyridin-4-yl)-2,3-dihydro-1H-inden-4-yl)carbamoyl)azetidine-3-sulfonamide]
pIC50 (NLRP3 [1]; [4]): > 6.00 | pIC50 (NLRP3 [2]): > 6.00

COc1cc(-c2cc(F)cc(C(C)C)c2NC(=O)NS(=O)(=O)c2ccc(=O)n(C(C)C)c2)ccn1 [Example 173, N-((4-Fluoro-2-isopropyl-6-(2-methoxypyridin-4-yl)phenyl)carbamoyl)-1-isopropyl-6-oxo-1,6-dihydropyridine-3-sulfonamide]
pIC50 (NLRP3 [1]; [4]): > 6.00 | pIC50 (NLRP3 [2]): > 6.00

C#CCN1CC(S(=O)(=O)NC(=O)Nc2c3c(cc4c2CCC4)CCC3)C1 [Example 133, N-((1,2,3,5,6,7-Hexahydro-s-indacen-4-yl)carbamoyl)-1-(prop-2-yn-1-yl)azetidine-3-sulfonamide, potassium salt]
pIC50 (NLRP3 [1]; [4]): > 6.00 | pIC50 (NLRP3 [2]): > 6.00

C#CCN1CCC(S(=O)(=O)NC(=O)Nc2c3c(cc4c2CCC4)CCC3)CC1 [Example 2, N-((1,2,3,5,6,7-Hexahydro-s-indacen-4-yl)carbamoyl)-1-(prop-2-yn-1-yl)piperidine-4-sulfonamide, potassium salt]
pIC50 (NLRP3 [1]; [4]): 5.00 to 6.00 | pIC50 (NLRP3 [2]): 5.00 to 6.00

O=C(Nc1c2c(cc3c1CCC3)CCC2)NS(=O)(=O)C1CNc2ccccc2C1 (centres unmarked) [Example 35, N-((1,2,3,5,6,7-Hexahydro-s-indacen-4-yl)carbamoyl)-1,2,3,4-tetrahydroquinoline-3-sulfonamide, potassium salt]
pIC50 (NLRP3 [1]; [4]): < 5.00 | pIC50 (NLRP3 [2]): > 6.00

CC(C)c1cc(F)cc(-c2ccnc(C#N)c2)c1NC(=O)NS(=O)(=O)c1ccc(=O)n(C(C)C)c1 [Example 172, N-((2-(2-cyanopyridin-4-yl)-4-fluoro-6-isopropylphenyl)carbamoyl)-1-isopropyl-6-oxo-1,6-dihydropyridine-3-sulfonamide]
pIC50 (NLRP3 [1]; [4]): > 6.00 | pIC50 (NLRP3 [2]): > 6.00

CCN1CC(N2CCC(S(=O)(=O)NC(=O)Nc3c4c(cc5c3CCC5)CCC4)CC2)C1 [Example 24, 1-(1-Ethylazetidin-3-yl)-N-((1,2,3,5,6,7-hexahydro-s-indacen-4-yl)carbamoyl)piperidine-4-sulfonamide, potassium salt]
pIC50 (NLRP3 [1]; [4]): > 6.00 | pIC50 (NLRP3 [2]): > 6.00

CCN1CC(S(=O)(=O)NC(=O)Nc2c(-c3ccnc(OC)c3)ccc3c2CCC3)C1 [Example 167, 1-Ethyl-N-((5-(2-methoxypyridin-4-yl)-2,3-dihydro-1H-inden-4-yl)carbamoyl)azetidine-3-sulfonamide]
pIC50 (NLRP3 [1]; [4]): > 6.00 | pIC50 (NLRP3 [2]): > 6.00

O=C(Nc1c2c(cc3c1CCC3)CCC2)NS(=O)(=O)C1CN(CCCCO)C1 [Example 138, N-((1,2,3,5,6,7-Hexahydro-s-indacen-4-yl)carbamoyl)-1-(4-hydroxybutyl)azetidine-3-sulfonamide, potassium salt]
pIC50 (NLRP3 [1]; [4]): > 6.00 | pIC50 (NLRP3 [2]): > 6.00

CCN1CCC(S(=O)(=O)NC(=O)Nc2c3c(cc4c2CCC4)CC=C3)CC1 [Example 189, 1-Ethyl-N-((1,2,3,7-tetrahydro-s-indacen-4-yl)carbamoyl) piperidine-4-sulfonamide, potassium salt]
pIC50 (NLRP3 [1]; [4]): 5.00 to 6.00

O=C(Nc1c2c(cc3c1CCC3)CCC2)NS(=O)(=O)C1CN(CCCO)C1 [Example 134, N-((1,2,3,5,6,7-Hexahydro-s-indacen-4-yl)carbamoyl)-1-(3-hydroxypropyl)azetidine-3-sulfonamide, potassium salt]
pIC50 (NLRP3 [1]; [4]): 5.00 to 6.00 | pIC50 (NLRP3 [2]): > 6.00

COC(=O)N1CCC(S(=O)(=O)NC(=O)Nc2c3c(cc4c2CCC4)CCC3)CC1 [Example 13, Methyl 4-(N-((1,2,3,5,6,7-hexahydro-s-indacen-4-yl)carbamoyl)sulfamoyl)piperidine-1-carboxylate, potassium salt]
pIC50 (NLRP3 [1]; [4]): < 5.00 | pIC50 (NLRP3 [2]): > 6.00

O=C(Nc1c2c(cc3c1CCC3)CCC2)NS(=O)(=O)C1CN(CCO)C1 [Example 152, 1-(2-Hydroxyethyl)-N-((1,2,3,5,6,7-hexahydro-s-indacen-4-yl)carbamoyl)azetidine-3-sulfonamide, potassium salt]
pIC50 (NLRP3 [1]; [4]): > 6.00 | pIC50 (NLRP3 [2]): > 6.00

O=C(Nc1c2c(cc3c1CCC3)CCC2)NS(=O)(=O)C1CN(CCF)C1 [Example 108, 1-(2-Fluoroethyl)-N-((1,2,3,5,6,7-hexahydro-s-indacen-4-yl)carbamoyl)azetidine-3-sulfonamide, potassium salt]
pIC50 (NLRP3 [1]; [4]): > 6.00 | pIC50 (NLRP3 [2]): > 6.00

O=C(Nc1c2c(cc3c1CCC3)CCC2)NS(=O)(=O)C1CN(CC(F)(F)F)C1 [Example 96, N-((1,2,3,5,6,7-Hexahydro-s-indacen-4-yl)carbamoyl)-1-(2,2,2-trifluoroethyl)azetidine-3-sulfonamide, potassium salt]
pIC50 (NLRP3 [1]; [4]): 5.00 to 6.00 | pIC50 (NLRP3 [2]): > 6.00

O=C(Nc1c2c(cc3c1CCC3)CCC2)NS(=O)(=O)C1CN(C(=O)OCc2ccccc2)C1 [Example 71, Benzyl 3-(N-((1,2,3,5,6,7-hexahydro-s-indacen-4-yl)carbamoyl)sulfamoyl)azetidine-1-carboxylate, potassium salt]
pIC50 (NLRP3 [1]; [4]): < 5.00 | pIC50 (NLRP3 [2]): > 6.00

O=C(Nc1c2c(cc3c1CCC3)CCC2)NS(=O)(=O)C1CCN(C(=O)C(F)(F)F)CC1 [Example 8, N-((1,2,3,5,6,7-Hexahydro-s-indacen-4-yl)carbamoyl)-1-(2,2,2-trifluoroacetyl)piperidine-4-sulfonamide, potassium salt]
pIC50 (NLRP3 [1]; [4]): > 6.00 | pIC50 (NLRP3 [2]): 5.00 to 6.00

O=C(Nc1c2c(cc3c1CCC3)CCC2)NS(=O)(=O)C1CN(Cc2cncnc2)C1 [Example 125, N-((1,2,3,5,6,7-Hexahydro-s-indacen-4-yl)carbamoyl)-1-(pyrimidin-S-ylmethyl)azetidine-3-sulfonamide, potassium salt]
pIC50 (NLRP3 [1]; [4]): 5.00 to 6.00

[N-]=[N+]=NCCN1CC(S(=O)(=O)NC(=O)Nc2c3c(cc4c2CCC4)CCC3)C1 [Example 95, 1-(2-Azidoethyl)-N-((1,2,3,5,6,7-hexahydro-s-indacen-4-yl)carbamoyl)azetidine-3-sulfonamide, potassium salt]
pIC50 (NLRP3 [1]; [4]): 5.00 to 6.00

O=C(Nc1c2c(cc3c1CCC3)CCC2)NS(=O)(=O)C1CN(CCCl)C1 [Example 92, 1-(2-Chloroethyl)-N-((1,2,3,5,6,7-hexahydro-s-indacen-4-yl)carbamoyl)azetidine-3-sulfonamide, potassium salt]
pIC50 (NLRP3 [1]): 5.00 to 6.00

O=C(Nc1c2c(cc3c1CCC3)CCC2)NS(=O)(=O)C1CN(C2CCCC2)C1 [Example 99, 1-Cyclopentyl-N-((1,2,3,5,6,7-hexahydro-s-indacen-4-yl)carbamoyl)azetidine-3-sulfonamide, potassium salt]
AUC [3]: 1670 ng·h/mL | clearance [3]: 10 mL/min/kg | half-life [3]: 36 min | Vd [3]: 0.42 L/kg

O=C(Nc1c2c(cc3c1CCC3)CCC2)NS(=O)(=O)C1CN(Cc2ccccc2)C1 [Example 72, 1-Benzyl-N-((1,2,3,5,6,7-hexahydro-s-indacen-4-yl)carbamoyl) azetidine-3-sulfonamide, potassium salt]
pIC50 (NLRP3 [1]; [4]): 5.00 to 6.00

COc1cc(-c2ccc3c(c2NC(=O)NS(=O)(=O)c2cn(C(C)C)c(=O)cn2)CCC3)ccn1 [Example 156, 4-Isopropyl-N-((5-(2-methoxypyridin-4-yl)-2,3-dihydro-11H-inden-4-yl)carbamoyl)-S-oxo-4,5-dihydropyrazine-2-sulfonamide]
AUC [3]: 1520 ng·h/mL | clearance [3]: 11 mL/min/kg | half-life [3]: 60 min | Vd [3]: 0.31 L/kg
